Reference: paper PMC10081510 (Journal of medicinal chemistry, 2022)
Converted amounts (≈) assume the structure as drawn. “Also recorded” adds a separate entry of the source.

Assays:
[1] = In vivo pharmacokinetic studies; parameters: species or system CD-1 mice; conditions: for clearance / AUC(0-inf) / Vd / Cmax / bioavailability / half-life: male, CD-1, mouse, plasma
[2] = Clinical observations during mouse PK studies; format: in vivo; conditions: CD-1 mice; for tolerability / clinical signs: 3 mg/kg iv and 10 mg/kg po
MV4:11 = experiment: Cell proliferation assay; format: cell-based; conditions: GI50,K562/GI50,MV4:11
WDR5 = WDR5 (Homo sapiens, UniProt P61964); experiment: TR-FRET competition assay against MLL1-derived 10-mer-Thr-FAM peptide probe; format: binding
K562 = experiment: Cell proliferation assay; format: cell-based; conditions: Homo sapiens, K562, 120 h, read-out: Cell Proliferation Assays GI50 (nM) K562
Kinetic solubility assay = format: physicochemical; conditions: phosphate-buffered saline, pH 7.4
[3] = Microsomal intrinsic clearance assay; format: in vitro ADME; conditions: rat, pooled liver microsomes
MV4:11 cancer cells = conditions: cited from earlier work
MV4:11 mouse xenograft = conditions: ip (DDO-2093) and po (DDO-2213) dosing; cited from earlier work
mouse models = conditions: cited from earlier work

In the case of COc1cc(CN2CCc3c(cc(Cn4ccn(C)c4=N)cc3-c3ccc(F)cc3C)C2=O)cc(OC)c1 [Compound 1], the oral exposure ([1]; CD-1 mice, 3 mg/kg po) is reported as “below the limit of quantitation”, the clearance ([1]; iv, 3 mg/kg) is reported as 4.68 L/h/kg and the acute toxicity signs ([2]; 3 mg/kg iv, 3 mg/kg) is reported as “signs of severe acute toxicity; also recorded: lethality”.
For COc1cc(CN2CCc3c(cc(Cn4cccn4)cc3-c3cn(C)nc3C(F)(F)F)C2=O)cc(OC)c1 [Compound 17, 7-((1H-Pyrazol-1-yl)methyl)-2-(3,5-dimethoxybenzyl)-5-(1-methyl-3-(trifluoromethyl)-1H-pyrazol-4-yl)-3,4-dihydroisoquinolin-1(2H)-one], the “Selectivity K562/MV4:11” value (MV4:11) was greater than 1.
In the case of COc1cc(CN2CCc3c(cc(Cn4cccc4)cc3-c3cn(C)nc3C(F)(F)F)C2=O)cc(OC)c1 [Compound 18, 7-((1H-Pyrrol-1-yl)methyl)-2-(3,5-dimethoxybenzyl)-5-(1-methyl-3-(trifluoromethyl)-1H-pyrazol-4-yl)-3,4-dihydroisoquinolin-1(2H)-one], the “Selectivity K562/MV4:11” value (MV4:11) is reported as greater than 2.
With COc1cc(CN2CCc3c(cc(Cn4cnnc4)cc3-c3cn(C)nc3C(F)(F)F)C2=O)cc(OC)c1 [Compound 19, 7-((4H-1,2,4-Triazol-4-yl)methyl)-2-(3,5-dimethoxybenzyl)-5-(1-methyl-3-(trifluoromethyl)-1H-pyrazol-4-yl)-3,4-dihydroisoquinolin-1(2H)-one] the “Selectivity K562/MV4:11” value (MV4:11) was greater than 2.
With CCc1nccn1Cc1cc2c(c(-c3cn(C)nc3C(F)(F)F)c1)CCN(Cc1cc(OC)cc(OC)c1)C2=O [Compound 21, 2-(3,5-Dimethoxybenzyl)-7-((2-ethyl-1H-imidazol-1-yl)methyl)-5-(1-methyl-3-(trifluoromethyl)-1H-pyrazol-4-yl)-3,4-dihydroisoquinolin-1(2H)-one] the Ki (WDR5) was 0.022 ± 0.001 nM.
COc1cc(CN2CCc3c(cc(Cn4ccnc4C(C)C)cc3-c3cn(C)nc3C(F)(F)F)C2=O)cc(OC)c1 [Compound 22, 2-(3,5-Dimethoxybenzyl)-7-((2-isopropyl-1H-imidazol-1-yl)methyl)-5-(1-methyl-3-(trifluoromethyl)-1H-pyrazol-4-yl)-3,4-dihydroisoquinolin-1(2H)-one] showed a GI50 (K562) of 16000 ± 3100 nM.
With COc1cc(CN2CCc3c(cc(Cn4ccnc4C(F)F)cc3-c3cn(C)nc3C(F)(F)F)C2=O)cc(OC)c1 [Compound 24, 7-((2-(Difluoromethyl)-1H-imidazol-1-yl)methyl)-2-(3,5-dimethoxybenzyl)-5-(1-methyl-3-(trifluoromethyl)-1H-pyrazol-4-yl)-3,4-dihydroisoquinolin-1(2H)-one] the “Selectivity K562/MV4:11” value (MV4:11) was greater than 3.
In the case of CCn1cc(-c2cc(Cn3ccnc3C)cc3c2CCN([C@@H](C)c2cc(OC)ccn2)C3=O)c(C(F)(F)F)n1 [Compound 34, (S)-5-(1-Ethyl-3-(trifluoromethyl)-1H-pyrazol-4-yl)-2-(1-(4-methoxypyridin-2-yl)ethyl)-7-((2-methyl-1H-imidazol-1-yl)methyl)-3,4-dihydroisoquinolin-1(2H)-one], the clearance ([1]; iv, 3 mg/kg) is reported as 7.08 L/h/kg and the “tolerability / clinical signs” value [2] is reported as “behaved normally during the study and showed no adverse effects”.
CCn1cc(-c2cc(Cn3ccnc3C)cc3c2CCN([C@H](c2cc(OC)ccn2)C2CC2)C3=O)c(C(F)(F)F)n1 [Compound 36, (S)-2-(Cyclopropyl(4-methoxypyridin-2-yl)methyl)-5-(1-ethyl-3-(trifluoromethyl)-1H-pyrazol-4-yl)-7-((2-methyl-1H-imidazol-1-yl)methyl)-3,4-dihydroisoquinolin-1(2H)-one] gave a Ki (WDR5) of less than 0.02 nM, a GI50 (K562) of 2600 ± 1500 nM and a solubility kinetic at 1 h (Kinetic solubility assay) of 65 µM (≈ 36.7 µg/mL). The AUC(0-inf) ([1]; iv, 3 mg/kg) was 1.24 µg·h/mL, the Vd ([1]; iv, 3 mg/kg) was 1.6 L/kg and the clearance ([1]; iv, 3 mg/kg) was 2.46 L/h/kg. The AUC(0-inf) ([1]; po, 10 mg/kg) was 0.508 µg·h/mL, the Cmax ([1]; po, 10 mg/kg) was 0.652 µg/mL and the bioavailability ([1]; po, 10 mg/kg) was 12%. For the same compound, the half-life ([1]; po, 10 mg/kg) was 1.4 h and the “tolerability / clinical signs” value [2] was “behaved normally during the study and showed no adverse effects”.
In the case of CCn1cc(-c2cc(Cn3ccnc3C)cc3c2CCN([C@H](c2cc(C)ccn2)C2CC2)C3=O)c(C(F)(F)F)n1 [Compound 37, (S)-2-(Cyclopropyl(4-methylpyridin-2-yl)methyl)-5-(1-ethyl-3-(trifluoromethyl)-1H-pyrazol-4-yl)-7-((2-methyl-1H-imidazol-1-yl)methyl)-3,4-dihydroisoquinolin-1(2H)-one], the clearance ([1]; iv, 3 mg/kg) is reported as 1.5 L/h/kg and the “tolerability / clinical signs” value [2] is reported as “behaved normally during the study and showed no adverse effects”.
With CCn1cc(-c2cc(Cn3ccnc3)cc3c2CCN([C@@H](C)c2cc(OC)ccn2)C3=O)c(C(F)(F)F)n1 [Compound 38, (S)-7-((1H-Imidazol-1-yl)methyl)-5-(1-ethyl-3-(trifluoromethyl)-1H-pyrazol-4-yl)-2-(1-(4-methoxypyridin-2-yl)ethyl)-3,4-dihydroisoquinolin-1(2H)-one] the Ki (WDR5) was less than 0.02 nM, the “Selectivity K562/MV4:11” value (MV4:11) was 200 and the GI50 (K562) was 1900 ± 1800 nM. It also gave a solubility kinetic at 1 h (Kinetic solubility assay) of 86 µM (≈ 45.1 µg/mL), a half-life at 1 μM [3] of 0.367 h and a microsomal CLint at 1 μM [3] of 31 µL/min/mg. The AUC(0-inf) ([1]; iv, 3 mg/kg) was 0.707 µg·h/mL, the Vd ([1]; iv, 3 mg/kg) was 2.3 L/kg and the clearance ([1]; iv, 3 mg/kg) was 4.56 L/h/kg. For the same compound, the bioavailability ([1]; oral, 10 mg/kg) was 73%, the AUC(0-inf) ([1]; po, 10 mg/kg) was 1.71 µg·h/mL and the Cmax ([1]; po, 10 mg/kg) was 2.01 µg/mL. For the same compound, the half-life ([1]; po, 10 mg/kg) was 1.2 h and the “tolerability / clinical signs” value [2] was “behaved normally during the study and showed no adverse effects”.
For CCn1cc(-c2cc(Cn3ccnc3)cc3c2CCN([C@H](c2cc(OC)ccn2)C2CC2)C3=O)c(C(F)(F)F)n1 [Compound 40, (S)-7-((1H-Imidazol-1-yl)methyl)-2-(cyclopropyl(4-methoxypyridin-2-yl)methyl)-5-(1-ethyl-3-(trifluoromethyl)-1H-pyrazol-4-yl)-3,4-dihydroisoquinolin-1(2H)-one], the “tolerability / clinical signs” value [2] was “behaved normally during the study and showed no adverse effects”.
In the case of CCn1cc(-c2cc(Cn3ccnc3)cc3c2CCN([C@H](c2cc(C)ccn2)C2CC2)C3=O)c(C(F)(F)F)n1 [Compound 41, (S)-7-((1H-Imidazol-1-yl)methyl)-2-(cyclopropyl(4-methylpyridin-2-yl)methyl)-5-(1-ethyl-3-(trifluoromethyl)-1H-pyrazol-4-yl)-3,4-dihydroisoquinolin-1(2H)-one], the Ki (WDR5) is reported as less than 0.02 nM, the “Selectivity K562/MV4:11” value (MV4:11) is reported as 290 and the GI50 (K562) is reported as 3700 ± 3100 nM. It also gave a solubility kinetic at 1 h (Kinetic solubility assay) of 60 µM (≈ 32.1 µg/mL), an AUC(0-inf) ([1]; iv, 3 mg/kg) of 1.95 µg·h/mL and a Vd ([1]; iv, 3 mg/kg) of 1.6 L/kg. It also gave a clearance ([1]; iv, 3 mg/kg) of 1.56 L/h/kg, a bioavailability ([1]; oral, 10 mg/kg) of 61% and an AUC(0-inf) ([1]; po, 10 mg/kg) of 3.98 µg·h/mL. The Cmax ([1]; po, 10 mg/kg) was 2.08 µg/mL, the half-life ([1]; po, 10 mg/kg) was 1.3 h and the “tolerability / clinical signs” value [2] was “behaved normally during the study and showed no adverse effects”.
For Cc1c(F)c(N)cc(C(=O)Nc2cc(-n3cc(C(=O)NCCCN4CCOCC4)nn3)ccc2N2CCN(C)CC2)c1Cl [DDO-2093], the GI50 (MV4:11 cancer cells) is given as roughly 10000 nM and the “in vivo tumor growth inhibition” value (MV4:11 mouse xenograft) is given as “marginal in vivo tumor growth inhibition”.
In the case of CN1CCN(c2cc(F)c(-c3ccc(NC(=O)N(C)C)cc3)cc2Nc2ncnc(Cl)c2N)CC1 [DDO-2213], the GI50 (MV4:11 cancer cells) is listed as roughly 10000 nM and the “in vivo tumor growth inhibition” value (MV4:11 mouse xenograft) is listed as “marginal in vivo tumor growth inhibition”.
In the case of Cc1ncsc1-c1ccc([C@H](C)NC(=O)[C@@H]2C[C@@H](O)CN2C(=O)[C@@H](NC(=O)CNC(=O)c2ccc(F)c(-c3ccc(N4C[C@@H](C)N(C)[C@@H](C)C4)c(NC(=O)c4c[nH]c(=O)cc4C(F)(F)F)c3)c2)C(C)(C)C)cc1 [MS67], the “in vivo tumor growth inhibition” value (mouse models) is given as “demonstrated in vivo tumor growth inhibition”.
